Measured values published in the SangsterLogP compilation.

Row | logP | SMILES
1 | 0.63 | O=C(O)CCCCO/N=C(\c1cncnc1)c1cccc(C(F)(F)F)c1
2 | 1.53 | O=C(O)CCCCO/N=C(\c1cccc(C(F)(F)F)c1)c1ncccn1
3 | -0.38 | O=C(O)CCCO/N=C(/c1ccccc1)c1cncnc1
4 | 1.08 | O=C(O)CCCCO/N=C(\c1cccc(C(F)(F)F)c1)c1cnccn1
5 | 2.27 | O=C(O)CCCCCO/N=C(/c1ccnnc1)c1cccc(C(F)(F)F)c1
6 | 0.36 | O=C(O)CCCO/N=C(\c1ccccc1)c1ncccn1
7 | 2.56 | O=C(O)CCCCCO/N=C(\c1cccc(C(F)(F)F)c1)c1cnccn1
8 | -0.21 | O=C(O)CCCCO/N=C(\c1ccccc1)c1cncnc1
9 | 0.5 | O=C(O)CCCCO/N=C(\c1ccccc1)c1ncccn1
10 | 1.07 | O=C(O)CCCCCON=C(c1ccccc1)c1ncccn1
11 | 1.81 | O=C(O)CCCCO/N=C(/c1ccnnc1)c1cccc(C(F)(F)F)c1
12 | 2.49 | O=C(O)CCCCCO/N=C(\c1cccc(C(F)(F)F)c1)c1ccncn1
13 | 1.94 | O=C(O)CCCCCO/N=C(/c1cccc(C(F)(F)F)c1)c1ncccn1
14 | 2.19 | O=C(O)CCCCCO/N=C(\c1cccc(C(F)(F)F)c1)c1cccnn1
15 | 0.08 | O=C(O)CCCCCO/N=C(/c1ccccc1)c1ccncn1
16 | 1.74 | O=C(O)CCCCON=C(c1cccc(C(F)(F)F)c1)c1ccncn1
17 | -0.47 | O=C(O)CCCO/N=C(\c1ccccc1)c1ccncn1
18 | 1.07 | O=C(O)CCCCCO/N=C(\c1cncnc1)c1cccc(C(F)(F)F)c1
19 | -0.19 | O=C(O)CCCCO/N=C(\c1ccccc1)c1ccncn1
